Format in all cases: in vivo
For test [1], the system named is Alopecurus myosuroides (ALOMY). The test is described as follows: Pre-emergence herbicidal activity, glasshouse pot test. The conditions noted are these: 480 h, rate 250 g/ha, evaluated 20 days later, 100=total damage to plant, 0=no damage to plant. How it is done: (§1) Monocotyledonous and dicotyledonous test plants were sown in standard soil in pots. After cultivation for one day (pre-emergence) or after 10 days cultivation (post-emergence) under controlled conditions in a glasshouse, the plants were sprayed with an aqueous spray solution derived from the formulation of the technical active ingredient in 0.6 ml acetone and 45 ml formulation solution containing 10.6% Emulsogen EL (Registry number 61791-12-6), 42.2% N-methylpyrrolidone, 42.2% dipropylene glycol monomethyl ether (Registry number 34590-94-8) and 0.2% X-77 (Registry number 11097-66-8). The test plants were then grown in a greenhouse under optimum conditions until, 15 days later for post-emergence and 20 days for pre-emergence, the test was evaluated (100=total damage to plant; 0=no damage to plant). Test Plants: Alopecurus myosuroides (ALOMY), Avena fatua (AVEFA), Lolium perenne (LOLPE), Setaria faberi (SETFA), Digitaria sanguinalis (DIGSA), Echinochloa crus-galli (ECHCG)

In test [2] the test system is Avena fatua (AVEFA). The test is described as above. Conditions: 480 h, rate 250 g/ha, evaluated 20 days later, 100=total damage to plant, 0=no damage to plant. How it is done:
as §1

For test [3], the system named is Digitaria sanguinalis (DIGSA). Described as above. Conditions: 480 h, rate 250 g/ha, evaluated 20 days later, 100=total damage to plant, 0=no damage to plant. The method, then: as §1
For test [4], the system named is Echinochloa crus-galli (ECHCG). The test is described as above. Conditions: 480 h, rate 250 g/ha, evaluated 20 days later, 100=total damage to plant, 0=no damage to plant. The method, then:
as §1

Test [5] concerns Lolium perenne (LOLPE). Described as above. The conditions noted are these: 480 h, rate 250 g/ha, evaluated 20 days later, 100=total damage to plant, 0=no damage to plant. The method, then: as §1
Test [6] has as its system Setaria faberi (SETFA). The description is as above. Conditions: 480 h, rate 250 g/ha, evaluated 20 days later, 100=total damage to plant, 0=no damage to plant. How it is done: as §1
Test [7] relates to Alopecurus myosuroides (ALOMY). The test is described as follows: Post-emergence herbicidal activity, glasshouse pot test. The conditions noted are these: 360 h, rate 125 g/ha, evaluated 15 days later, 100=total damage to plant, 0=no damage to plant. How it is done: as §1
The subject of test [8] is Avena fatua (AVEFA). The test is described as above. Conditions: 360 h, rate 125 g/ha, evaluated 15 days later, 100=total damage to plant, 0=no damage to plant. The method, then: as §1
For test [9], the system named is Digitaria sanguinalis (DIGSA). The test is described as above. Conditions: 360 h, rate 125 g/ha, evaluated 15 days later, 100=total damage to plant, 0=no damage to plant. How it is done: as §1
The subject of test [10] is Echinochloa crus-galli (ECHCG). Described as above. The conditions noted are these: 360 h, rate 125 g/ha, evaluated 15 days later, 100=total damage to plant, 0=no damage to plant. How it is done:
as §1

In test [11] the test system is Lolium perenne (LOLPE). The description is as above. The conditions noted are these: 360 h, rate 125 g/ha, evaluated 15 days later, 100=total damage to plant, 0=no damage to plant. How it is done:
as §1

Test [12] concerns Setaria faberi (SETFA). Described as above. The conditions noted are these: 360 h, rate 125 g/ha, evaluated 15 days later, 100=total damage to plant, 0=no damage to plant. How it is done:
as §1

Experimental findings from patent US8940913B2, “Herbicides” (Syngenta Crop Protection, LLC, priority 2007, dated 2015) are described below.

In general, pest or weed control refers to the degree to which the test organism was suppressed or injured, in per cent. A lower pest or weed control goes with a weak effect. On to `Cc1cc(-c2ccccc2)cc(C)c1C1=C(OC(=O)C(C)C)[C@H]2[C@@H](C1=O)[C@@H]1CC[C@H]2O1` [Compound P2], for which the pest or weed control at 250 g/ha in test [1] was 100%; in the test with Avena fatua (AVEFA) [2], 70%; in test [3], 100%; in [4], 80%; in the test on Lolium perenne (LOLPE) [5] it was 90%; in the test on Setaria faberi (SETFA) [6], 100%. For the same compound, the pest or weed control at 125 g/ha in [7] amounted to 100%; in the test with Avena fatua (AVEFA) [8], 80%; in [9], 90%; in test [10], 100%; in the test with Lolium perenne (LOLPE) [11], 90%; with Setaria faberi (SETFA) [12] it was 100%.

Consider `CCc1ccc(-c2ccc(Cl)cc2Cl)cc1C1=C(O)[C@H]2[C@@H](C1=O)[C@]1(C)CC[C@@]2(C)O1` [Compound T24], for which the pest or weed control at 250 g/ha worked out at 10% in [1]; 30% in the test on Avena fatua (AVEFA) [2]; 100% in test [3]; 100% in [4]; 30% in the test on Lolium perenne (LOLPE) [5]; 100% in the test with Setaria faberi (SETFA) [6]. In addition, the pest or weed control at 125 g/ha in test [7] came to 90%; with Avena fatua (AVEFA) [8], 90%; in test [9] it was 100%; in [10], 100%; with Lolium perenne (LOLPE) [11], 60%; in the test on Setaria faberi (SETFA) [12] it was 100%.

`CCc1ccc(-c2ccc(Cl)cc2F)cc1C1=C(O)[C@H]2[C@@H](C1=O)[C@]1(C)CC[C@@]2(C)O1` (racemic) [Compound T23, (1RS,2SR,6RS,7SR)-4-(4′-chloro-4-ethyl-2′-fluorobiphen-3-yl)-1,7-dimethyl-10-oxatricyclo[5.2.1.0^2,6]decane-3,5-dione]: the pest or weed control at 250 g/ha was determined as 40% in test [1]; 60% with Avena fatua (AVEFA) [2]; 100% in [3]; 100% in [4]; 70% with Lolium perenne (LOLPE) [5]; 100% in the test with Setaria faberi (SETFA) [6]. Also, the pest or weed control at 125 g/ha in [7] was found to be 100%; with Avena fatua (AVEFA) [8] it was 100%; in test [9], 90%; in [10], 100%; with Lolium perenne (LOLPE) [11] it was 70%; in the test on Setaria faberi (SETFA) [12], 90%.

Turning to `Cc1cc(-c2ccccc2)cc(C)c1C1=C(OC(=O)C(C)(C)C)[C@H]2[C@@H](C1=O)[C@@H]1CC[C@H]2O1` (racemic) [Compound P1, (1RS,2SR,6RS,7SR)-4-(3,5-dimethylbiphenyl-4-yl)-5-oxo-10-oxa-tricyclo[5.2.1.0^2,6]dec-3-en-3-yl 2,2-dimethylpropionate], the pest or weed control at 250 g/ha in test [1] is 100%; in the test on Avena fatua (AVEFA) [2] it was 70%; in [3], 100%; in test [4] it was 100%; in the test with Lolium perenne (LOLPE) [5] it was 100%; in the test on Setaria faberi (SETFA) [6] it was 90%. For the same compound, the pest or weed control at 125 g/ha is 100% in [7]; 50% in the test with Avena fatua (AVEFA) [8]; 80% in test [9]; 100% in [10]; 90% in the test on Lolium perenne (LOLPE) [11]; 80% in the test with Setaria faberi (SETFA) [12].

Consider `CCc1ccc(-c2ccc(Cl)cc2C)cc1C1=C(O)[C@H]2[C@@H](C1=O)[C@]1(C)CC[C@@]2(C)O1` [Compound T28], for which the pest or weed control at 250 g/ha in test [1] amounted to 0%; with Avena fatua (AVEFA) [2] it was 30%; in test [3], 30%; in test [4] it was 0%; with Lolium perenne (LOLPE) [5], 40%; in the test with Setaria faberi (SETFA) [6] it was 20%. Also, the pest or weed control at 125 g/ha in [7] is 90%; with Avena fatua (AVEFA) [8] it was 90%; in test [9] it was 70%; in test [10], 100%; with Lolium perenne (LOLPE) [11], 50%; in the test with Setaria faberi (SETFA) [12], 100%.

As for `CCc1ccc(-c2ccc(Cl)s2)cc1C1=C(O)[C@H]2[C@@H](C1=O)[C@]1(C)CC[C@@]2(C)O1` [Compound T32], the pest or weed control at 250 g/ha in test [1] is 30%; in the test on Avena fatua (AVEFA) [2], 0%; in test [3], 30%; in test [4], 70%; with Lolium perenne (LOLPE) [5], 60%; in the test with Setaria faberi (SETFA) [6], 100%. Also, the pest or weed control at 125 g/ha in test [7] turned out to be 70%; in the test with Avena fatua (AVEFA) [8], 70%; in test [9], 70%; in test [10], 100%; with Lolium perenne (LOLPE) [11], 60%; in the test on Setaria faberi (SETFA) [12], 70%.

Turning to `CC(=O)OC1=C(c2c(C)cc(-c3ccccc3)cc2C)C(=O)[C@@H]2[C@H]1[C@H]1CC[C@@H]2O1` [Compound P3], the pest or weed control at 250 g/ha in [1] was 100%; in the test on Avena fatua (AVEFA) [2], 60%; in test [3] it was 100%; in test [4], 80%; in the test on Lolium perenne (LOLPE) [5], 100%; with Setaria faberi (SETFA) [6], 100%. Besides, the pest or weed control at 125 g/ha was 100% in test [7]; 80% in the test with Avena fatua (AVEFA) [8]; 80% in test [9]; 100% in test [10]; 100% in the test with Lolium perenne (LOLPE) [11]; 90% in the test on Setaria faberi (SETFA) [12].

As for `CC(=O)OC1=C(c2c(C)cc(-c3ccccc3)cc2C)C(=O)[C@@H]2[C@H]1[C@@]1(C)CC[C@]2(C)O1` [Compound P6], the pest or weed control at 250 g/ha was found to be 80% in test [1]; 30% with Avena fatua (AVEFA) [2]; 100% in test [3]; 100% in test [4]; 70% in the test on Lolium perenne (LOLPE) [5]; 100% with Setaria faberi (SETFA) [6]. Moreover, the pest or weed control at 125 g/ha worked out at 70% in test [7]; 50% in the test with Avena fatua (AVEFA) [8]; 90% in [9]; 100% in test [10]; 60% in the test with Lolium perenne (LOLPE) [11]; 100% in the test with Setaria faberi (SETFA) [12].

`CCc1ccc(-c2ccc(Cl)nc2Cl)cc1C1=C(O)[C@H]2[C@@H](C1=O)[C@@H]1CC[C@H]2O1` [Compound T21]: the pest or weed control at 250 g/ha in test [1] turned out to be 50%; in the test on Avena fatua (AVEFA) [2] it was 50%; in test [3], 90%; in test [4], 100%; in the test with Lolium perenne (LOLPE) [5], 60%; with Setaria faberi (SETFA) [6], 100%. Also, the pest or weed control at 125 g/ha came out at 80% in test [7]; 80% in the test on Avena fatua (AVEFA) [8]; 100% in test [9]; 100% in test [10]; 40% in the test on Lolium perenne (LOLPE) [11]; 90% with Setaria faberi (SETFA) [12].
